Experimental data as given in patent publication US6548488B2, “Composition comprising camptothecin or a camptothecin derivative and an alkylating agent for the treatment of cancer” (priority 2000, dated 2003).
Read-outs that look alike come from different tables or passages of the source. Marks after values point to notes of the source that are not given here.

Tests used:
P388/CPT = assay: Chemosensitivity of camptothecin-resistant i.p. P388/CPT leukemia, increase in life span; format: in vivo, mice; details: for Comment: response of P388/CPT
Method: Cross-resistance was measured in murine leukemia cell lines. P388/CPT is a camptothecin-resistant leukemia that was established in vitro (Biochem. Pharmacol., 45: 339 (1993) and maintained in vivo by i.p. passages in DBA2 female mice. The chemosensitivity of i.p. P388/CPT was evaluated with i.v. P388 sensitive reference drugs with different mechanisms of action. Antitumor efficacy was determined at the highest non-toxic dose as percent increase in life span (ILS), where:
ILS=100×[(median day of death (MDD) of treated mice)−(MDD control mice)]÷(MDD control mice)
A minimal level of activity equals an ILS of greater than 26%. […] Table III tabulates the results from this study.

P388 = format: in vivo, mice; details: for %ILS: highest non-toxic dose
MA16/C, sc = test system: MA16/C, sc
Method: (§1) This efficacy may be quantified, for example by the log10 cell kill, which is determined by the following formula:
(§2) log10 cell kill=T-C(days)/3.32×Td
(§3) in which T-C represents the time taken for the cells to grow, which is the mean time in days for the tumors of the treated group (T) to reach a predetermined value (1 g for example) and the tumors of the control group (C) to reach the same value, and Td represents the time in days needed for the volume of the tumor in the control group to double (T. H. Corbett et al., Cancer, 40: 2660-2680 (1977); F. M. Schabel et al., Cancer Drug Development, Part B, Methods in Cancer Research, 17: 3-51, New York, Academic Press Inc. (1979)). A product is considered to be active if the log10 cell kill is greater than or equal to 0.7. A product is considered to be very active if the log10 cell kill is greater than 2.8.
The effectiveness of irinotecan combination chemotherapy methods were tested in a dose response study in a murine tumor model. Three arms were evaluated for tolerance and efficacy. Tolerance was measured by mortality, body weight loss at nadir, host recovery time, and combination toxicity index. Efficacy end points for solid tumor models were tumor growth delay (T/C), log10 cell kill (LCK, defined above), tumor regressions (i.e., complete remission (CR),or partial remission (PR)). For non-solid tumors, such as leukemia, efficacy was measured as the increase in life span (ILS).
Combination toxicity index (CTI) was calculated as the sum of the fraction of LD10's for each agent used in each combination (Cancer Treatment Reports, 66(5): 1187-1200 (1982)). The LD10 for the single agent was obtained by plotting the toxicity of that agent and the dosage in mg/kg as a log probit graph. Subsequently, the CTI LD10 was obtained by plotting as a log probit graph the observed lethality and the corresponding CTI calculated as the sum of the fraction of the LD10 of each single agent. When the CTI equals one, only 50% of the LD10's of each agent can be used in combination without additional toxicity, and when the CTI equals two, 100% of the LD10's of each agent can be used in combination without additional toxicity.

[1] = test system: mammary adenocarcinoma MA16/C/sp
Method: as §1, §2, §3
The effect of the combination of CPT-11 and cyclophosphamide was evaluated in a three arn study in mice bearing mammary adenocarcinoma MA16/C/sp. In the first arm, four dose levels of CPT-11 were given orally on days three through seven. In the second arm, five dose levels of cyclophosphamide were given intravenously on days three, five and seven. In the combination third arm, eight dosage levels of CPT-11 were administered orally on days three through seven, with administration of eight dosage levels of cyclophosphamide intravenously on days three, five and seven. This third arm illustrated an example of semi-simultaneous administration.

C26 = assay: Oral vs i.v. irinotecan, C26 tumor in BALB/c mice; format: in vivo; details: for LCK: optimal total dose
Method: as §2
(§4) Three arms were evaluated for tolerance and efficacy.
(§5) The optimal total dose for oral and intravenous administration routes for irinotecan alone in various murine models is indicated in Table II.

C51 = assay: Oral vs i.v. irinotecan, C51 tumor in BALB/c mice; format: in vivo; details: days 5, 7, 9, 13, 15, twice daily; for LCK: optimal total dose
Method: as §2, §4, §5

P03 = assay: Oral vs i.v. irinotecan, P03 tumor in B6D2F1 mice; format: in vivo; details: twice daily; for LCK: optimal total dose
Method: as §2, §4, §5

[2] = Tolerance of oral vs i.v. irinotecan in tumor bearing mice; format: in vivo; details: both methods of administration (oral and i.v.)
Method: as §4

MA16/C = assay: Oral vs i.v. irinotecan, MA16/C tumor in C3H/HeN mice; format: in vivo; details: for Optimal Total Dose: days 5-9; for LCK: days 5-9, optimal total dose
Method: as §2, §4, §5

GOS = assay: Oral vs i.v. irinotecan, GOS tumor in B6D2F1 mice; format: in vivo; details: for LCK: optimal total dose
Method: as §2, §4, §5

[3] = CPA i.v. 37.0 mg/kg/adm, days 3, 5, 7
[4] = CPA i.v. 60.0 mg/kg/adm, days 3, 5, 7
[5] = CPA i.v. 97.0 mg/kg/adm, days 3, 5, 7 (HNTD)
[6] = CPA i.v. 156.0 mg/kg/adm, days 3, 5, 7
[7] = CPT-11 p.o. 25.0 mg/kg/adm, days 3-7
[8] = CPT-11 p.o. 40.0 mg/kg/adm, days 3-7 (HNTD)

In the case of `CC[C@@]1(O)C(=O)OCc2c1cc1n(c2=O)Cc2cc3ccccc3nc2-1` [CPT, camptothecin], the “%ILS” value (P388/CPT; sc, highest non-toxic dose) is reported as 0%, the Comment (P388/CPT; sc) is reported as “resistant” and the “%ILS” value (P388; sc) is reported as 82%.
In the case of `O=P1(N(CCCl)CCCl)NCCCO1` (centres unmarked) [CPA, cyclophosphamide], the “HNTD Dose” value (MA16/C, sc; cyclophosphamide, i.v. alone, days 3, 5, 7) is reported as 291 mg/kg, the LCK (MA16/C, sc; cyclophosphamide, i.v. alone, days 3, 5, 7, at HNTD) is reported as 2.8 and the “%ILS” value (P388/CPT; i.v., highest non-toxic dose) is reported as 153%. For the same compound, the TFS (P388/CPT; i.v., highest non-toxic dose) was 1/5, the Comment (P388/CPT; i.v., listed as Cyclophosphamide) was “sensitive” and the Comment (P388/CPT; i.v., listed as cyclophosphamide) was “very sensitive”. For the same compound, the Comments ([1]; CPA i.v. 23.0 mg/kg/adm, days 3, 5, 7) was “Inactive”, the Comments [1, 3] was “Active” and the Log10 cell kill [1, 3] was 1.0. For the same compound, the “T-C” value [1, 3] was 3.8 days, the “Time for median tumor to reach 750 mg” value [1, 3] was 12.0 days and the Comments [1, 4] was “Active”. For the same compound, the Log10 cell kill [1, 4] was 1.9, the “T-C” value [1, 4] was 6.9 days and the “Time for median tumor to reach 750 mg” value [1, 4] was 15.1 days. The Comments ([1]; CPA i.v. 97.0 mg/kg/adm, days 3, 5, 7) was “HNTD Highly Active”, the Log10 cell kill [1, 5] was 2.8 and the “T-C” value [1, 5] was 10.3 days. The “Time for median tumor to reach 750 mg” value [1, 5] was 18.5 days, the Comments [1, 6] was “Toxic” and the Log10 cell kill [1, 6] was “NTBA”. The “T-C (days)” value [1, 6] was “NTBA”, the “Time for median tumor to reach 750 mg in days” value [1, 6] was “NTBA” and the “sensitivity of the camptothecin sensitive cell line” value (P388; i.v.) was “very sensitive”. The “%ILS” value (P388; i.v.) was 245%.
For `CCc1c2c(nc3ccc(OC(=O)N4CCC(N5CCCCC5)CC4)cc13)-c1cc3c(c(=O)n1C2)COC(=O)[C@]3(O)CC` [CPT-11, irinotecan], the “HNTD Dose” value (MA16/C, sc; CPT-11, i.v. alone, days 3-7) was 200 mg/kg, the LCK (MA16/C, sc; CPT-11, i.v. alone, days 3-7, at HNTD) was 2.0 and the “Optimal Total Dose” value (C26; i.v., twice daily) was 228 mg/kg. For the same compound, the LCK (C26; i.v., twice daily) was 0.7, the “Optimal Total Dose” value (C26; oral, days 3-7, twice daily) was 558 mg/kg and the LCK (C26; oral, days 3-7, twice daily) was 0.9. The “Optimal Total Dose” value (C51; i.v.) was 615 mg/kg, the LCK (C51; i.v.) was 3.0 and the “Optimal Total Dose” value (C51; oral) was 845 mg/kg. For the same compound, the LCK (C51; oral) was 2.5, the “Optimal Total Dose” value (P03; i.v.) was 346.2 mg/kg and the LCK (P03; i.v.) was 3.2†. For the same compound, the “Optimal Total Dose” value (P03; oral) was 900 mg/kg, the LCK (P03; oral) was 3.4† and the body weight loss [2] was 8.5%. For the same compound, the nadir [2] was 7 days post last administration, the “%ILS” value (P388/CPT; i.v., highest non-toxic dose) was 0% and the Comment (P388/CPT; i.v.) was “resistant”. The “Optimal Total Dose” value (MA16/C; i.v.) was 130.5 mg/kg, the LCK (MA16/C; i.v.) was 2.6 and the “Optimal Total Dose” value (MA16/C; oral) was 230.5 mg/kg. The LCK (MA16/C; oral) was 2.7, the “Optimal Total Dose” value (GOS; i.v., days 3, 5, 7 twice daily) was 346.2 mg/kg and the LCK (GOS; i.v., days 3, 5, 7 twice daily) was 2.2. The “Optimal Total Dose” value (GOS; oral, days 3-7, twice daily) was 900 mg/kg, the LCK (GOS; oral, days 3-7, twice daily) was 2.1 and the Comments [1, 7] was “Active”. For the same compound, the Log10 cell kill [1, 7] was 1.1, the “T-C” value [1, 7] was 4.1 days and the “Time for median tumor to reach 750 mg” value [1, 7] was 12.3 days. For the same compound, the Comments ([1]; CPT-11 p.o. 40.0 mg/kg/adm, days 3-7) was “HNTD Active”, the Log10 cell kill [1, 8] was 2.0 and the “T-C” value [1, 8] was 7.3 days. The “Time for median tumor to reach 750 mg” value [1, 8] was 15.5 days, the Comments ([1]; CPT-11 p.o. 64.0 mg/kg/adm, days 3-7) was “Toxic” and the Comments ([1]; mouse, in vivo, po, 103 mg/kg) was “Toxic”. The “%ILS” value (P388; i.v.) was 91%.
